Results from the NIST ThermoML archive (doi:10.1021/je700621d).

Experiments:
[1] = for mass density: Liquid, Vibrating tube method; for surface tension liquid-gas: Pendant drop shape
[2] = xn = mol fraction of the nth substance listed; details: 298 K; for surface tension liquid-gas: Pendant drop shape; for mass density: 101 kPa, Liquid, Vibrating tube method

CCn1cc[n+](C)c1.O=S(=O)([N-]S(=O)(=O)C(F)(F)F)C(F)(F)F
[1], 101.33 kPa
Details | mass density [kg/m3]
278.15 K | 1539.1
288.15 K | 1528.9
298.15 K | 1518.7
308.15 K | 1508.7
318.15 K | 1498.6
328.15 K | 1488.7

[1]
Details | surface tension liquid-gas [mN/m]
278.75 K | 37.31
288.15 K | 36.58
298.15 K | 35.71
308.15 K | 35.17
318.15 K | 34.68
328.15 K | 34.25

CCCO [propan-1-ol] + CCCC[n+]1ccn(C)c1.O=S(=O)([N-]S(=O)(=O)C(F)(F)F)C(F)(F)F
[2], x2 = 0
Details | mass density [kg/m3] | surface tension liquid-gas [mN/m]
– | 799 | 23.34

CCCC[n+]1ccn(C)c1.O=S(=O)([N-]S(=O)(=O)C(F)(F)F)C(F)(F)F
[1], 101.33 kPa
Details | mass density [kg/m3]
278.15 K | 1456.1
288.15 K | 1446.2
298 K | 1436.4
298.15 K | 1436.6
308.15 K | 1427
318.15 K | 1417.4
328.15 K | 1407.9

[1]
Details | surface tension liquid-gas [mN/m]
278.75 K | 33.8
288.15 K | 33.37
298 K | 32.8
298.15 K | 32.8
308.15 K | 32.32
318.15 K | 31.89
328.15 K | 31.28

CCCCCCCC[N+](C)(CCCCCCCC)CCCCCCCC.O=S(=O)([N-]S(=O)(=O)C(F)(F)F)C(F)(F)F
[1], 101.33 kPa
Details | mass density [kg/m3]
278.15 K | 1119.8
288.15 K | 1112.2
298.15 K | 1104.6
308.15 K | 1097.2
318.15 K | 1089.6
328.15 K | 1082.1

[1]
Details | surface tension liquid-gas [mN/m]
278.75 K | 29.65
288.15 K | 28.92
298.15 K | 27.93
308.15 K | 27.02
318.15 K | 26.56
328.15 K | 26.03

CCCCCCCCOS(=O)(=O)[O-].CCCCn1cc[n+](C)c1 [1-butyl-3-methylimidazolium octyl sulfate]
[1], 101.33 kPa
Details | mass density [kg/m3]
278.15 K | 1077.3
288.15 K | 1070.4
298.15 K | 1063.8
308.15 K | 1057.1
318.15 K | 1050.8
328.15 K | 1044.3

[1]
Details | surface tension liquid-gas [mN/m]
278.75 K | 28.08
288.15 K | 27.29
298.15 K | 26.71
308.15 K | 26.27
318.15 K | 25.72
328.15 K | 24.99

CCOS(=O)(=O)[O-].CCn1cc[n+](C)c1 [1-ethyl-3-methylimidazolium ethyl sulfate]
[1], 101.33 kPa
Details | mass density [kg/m3]
278.15 K | 1255.1
288.15 K | 1248.1
298.15 K | 1241.1
308.15 K | 1234.2
318.15 K | 1227.3
328.15 K | 1220.6

[1]
Details | surface tension liquid-gas [mN/m]
278.75 K | 46.7
288.15 K | 46.04
298.15 K | 45.43
308.15 K | 44.72
318.15 K | 43.74
328.15 K | 43.37

CCCCO [butan-1-ol]
Details | surface tension liquid-gas [mN/m]
[1], 298 K | 23.96

Details | mass density [kg/m3]
[1], 298 K, 101.3 kPa | 805.3

CCCO [propan-1-ol]
Details | surface tension liquid-gas [mN/m]
[1], 298 K | 23.34

Details | mass density [kg/m3]
[1], 298 K, 101.3 kPa | 799

CCCC[n+]1ccn(C)c1.O=S(=O)([N-]S(=O)(=O)C(F)(F)F)C(F)(F)F + CCCO
[2]
Details | mass density [kg/m3] | surface tension liquid-gas [mN/m]
x1 = 0.035 | 878.2 | 23.6
x1 = 0.131 | 1036.2 | 24.16
x1 = 0.202 | 1116.5 | 24.73
x1 = 0.296 | 1194.1 | 25.77
x1 = 0.373 | 1243.5 | 26.47
x1 = 0.517 | 1311.8 | 28.6
x1 = 0.664 | 1361.9 | 29.89
x1 = 0.685 | 1368 | 30.54
x1 = 0.884 | 1422 | 32.49
x1 = 1 | 1436.4 | 32.8

CCCC[N+](C)(C)C.O=S(=O)([N-]S(=O)(=O)C(F)(F)F)C(F)(F)F [butyltrimethylammonium bis(trifluoromethylsulfonyl)imide]
[1], 101.33 kPa
Details | mass density [kg/m3]
278.15 K | 1412.3
288.15 K | 1403
298.15 K | 1394
308.15 K | 1385
318.15 K | 1376.1
328.15 K | 1367.3

[1]
Details | surface tension liquid-gas [mN/m]
278.75 K | 33.31
288.15 K | 33.04
298.15 K | 32.46
308.15 K | 32
318.15 K | 31.21
328.15 K | 30.64

CCCC[n+]1ccn(C)c1.O=S(=O)([N-]S(=O)(=O)C(F)(F)F)C(F)(F)F + CCCCO
[2]
Details | mass density [kg/m3] | surface tension liquid-gas [mN/m]
x1 = 0.0941 | 962.2 | 23.98
x1 = 0.2025 | 1087.1 | 23.88
x1 = 0.2045 | 1089 | 23.8
x1 = 0.306 | 1172.6 | 24.16
x1 = 0.3064 | 1172.5 | 24.25
x1 = 0.3964 | 1230.5 | 25.17
x1 = 0.5002 | 1283.6 | 26.79
x1 = 0.5977 | 1323.5 | 28.32
x1 = 0.6848 | 1354.8 | 29.56
x1 = 0.8016 | 1388.6 | 30.96
x1 = 0.8986 | 1413.4 | 31.94
x1 = 1 | 1436.4 | 32.8

CCCCO [butan-1-ol] + CCCC[n+]1ccn(C)c1.O=S(=O)([N-]S(=O)(=O)C(F)(F)F)C(F)(F)F
[2], x2 = 0
Details | mass density [kg/m3] | surface tension liquid-gas [mN/m]
– | 805.3 | 23.96
